The values that follow come from patent EP4775208A1, “USE OF PRMT5 INHIBITOR IN TREATMENT OF TUMORS OR CANCERS” (Apeiron Therapeutics (Hong Kong) Ltd., priority 2023, dated 2025).

One assay concerns U87MG. Put plainly: Mini cell panel: inhibition of proliferation of U87MG cells. The class given is cell-based. The conditions noted are these: MTAP (-/-). The text has this: (§1) Test 9: Mini Cell Panel: Assay for Inhibitory Activity of Compounds against Proliferation of 20 Tumor Cell Lines
(§2) Materials and Cells: Fifteen MTAP(-/-) cell lines and five MTAP wild-type cell lines were purchased from ATCC (USA). Cell culture media, fetal bovine serum (FBS), and penicillin-streptomycin were purchased from Thermo Fisher Scientific (USA). 384-well plates were purchased from PerkinElmer (USA). The CellTiter-Glo assay kit was purchased from Promega (USA). Paclitaxel was used as the control compound.

For a further assay, the system named is LN18 MTAP(-/-) cells. Kind of assay: Inhibition of proliferation of LN18 MTAP(-/-) cells (CellTiter-Glo). It is filed as cell-based. The conditions noted are these: cell proliferation, 7 days. How it is done: Test 5: Assay for Inhibitory Activity of Compounds against LN18 MTAP(-/-) Cell Proliferation
Materials and Cells: The LN18 MTAP(-/-) cell line was provided by Cobioer Biosciences (China). Cell culture media, fetal bovine serum (FBS), and penicillin-streptomycin were purchased from Thermo Fisher Scientific (USA). 384-well plates were purchased from PerkinElmer (USA). The CellTiter-Glo assay kit was purchased from Promega (USA).
Cell Culture: LN18 MTAP(-/-) cells were cultured in a medium supplemented with 10% fetal bovine serum (FBS) and 1% penicillin-streptomycin at 37°C with 5% CO2. Only cells in the logarithmic growth phase were used for experiments.
Cell Proliferation Inhibition Assay: The antiproliferative activity of the compounds against LN18 MTAP(-/-) cells was assessed using the CellTiter-Glo assay kit. Cell suspensions were adjusted to the appropriate density and seeded into 384-well plates at a volume of 40 µL per well, then incubated overnight at 37°C with 5% CO2. Compounds (40 nL) were added to each well to achieve final concentrations ranging from 0 to 1,000 nM (starting concentration 1,000 nM, 3-fold serial dilutions, 9 dose points), with a final DMSO concentration of […]. The cell plates were incubated at 37°C with 5% CO2 for 7 days. Subsequently, 40 µL of CellTiter-Glo reagent was added to measure cell viability.
Background: Cellular ATP, detected with luciferase, serves as a proxy for viable cell number.

The test system of the next assay is LN-18. Kind of assay: Mini cell panel: inhibition of proliferation of LN-18 cells. The class given is cell-based.
From the text: as §1, §2

A further assay relates to 15 MTAP(-/-) cell lines. Kind of assay: Mini cell panel: summary over the MTAP(-/-) cell lines. It is filed as cell-based. The conditions noted are these: for selectivity, calculated based on the median values: MTAP wild-type vs MTAP(-/-) cell lines.
From the text: as §1, §2

The subject of assay [1] is HCT-116 MTAP(-/-) deficient cells. Put plainly: Inhibition of proliferation of HCT-116 MTAP(-/-) deficient cells (Cell-Titer Glo). It is filed as cell-based. The conditions noted are these: 8 days. The essentials: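 Cells in log-phase growth, RPMI-1640 with 10% FBS, seeded and left overnight at 37°C, 5% CO2. Compound tested at 0–10,000 nM (10 points, 3-fold, 0.1% DMSO) for 8 days at 37°C, 5% CO2. Viability read by CellTiter-Glo luminescence.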

The subject of another assay is Aspc-1. Put plainly: Mini cell panel: inhibition of proliferation of Aspc-1 cells. The class given is cell-based.
From the text: as §1, §2

For assay [2], the system named is five MTAP wild-type cell lines. Kind of assay: Mini cell panel: summary over the MTAP wild-type cell lines. The class given is cell-based.
From the text: as §1, §2

For a further assay, the system named is BxPc-3. Put plainly: Mini cell panel: inhibition of proliferation of BxPc-3 cells. The class given is cell-based.
From the text: as §1, §2

A further assay relates to Calu-1. Kind of assay: Mini cell panel: inhibition of proliferation of Calu-1 cells. The class given is cell-based.
From the text: as §1, §2

Another assay concerns LU99. Kind of assay: Mini cell panel: inhibition of proliferation of LU99 cells. It is filed as cell-based.
From the text: as §1, §2

The next assay has as its system NCI-H838 MTAP(-/-) cells. Put plainly: Inhibition of proliferation of NCI-H838 MTAP(-/-) cells (CellTiter-Glo). To be noted: read-out: IC50(nM) NCI-H838 MTAP(-/-).
Assay [3] relates to LU99 MTAP-overexpressing cells. Put plainly: Inhibition of proliferation of LU99 MTAP-overexpressing cells (CellTiter-Glo). It is filed as cell-based. The conditions noted are these: cell proliferation, 6 days. The procedure: Test 4: Assay for Inhibitory Activity of Compounds against LU99 MTAP-Overexpressing Cell Proliferation
Materials and Cells: The LU99 MTAP-overexpressing cell line was purchased from Cobioer Biosciences (China). Cell culture media and fetal bovine serum (FBS) were purchased from Thermo Fisher Scientific (USA). 384-well plates were purchased from PerkinElmer (USA). The CellTiter-Glo assay kit was purchased from Promega (USA).
Cell Culture: LU99 MTAP-overexpressing cells were cultured in a medium supplemented with 10% fetal bovine serum (FBS) at 37°C with 5% CO2. Only cells in the logarithmic growth phase were used for experiments.
Cell Proliferation Inhibition Assay: The antiproliferative activity of the compounds against LU99 MTAP-overexpressing cells was assessed using the CellTiter-Glo assay kit. Cell suspensions were adjusted to the appropriate density and seeded into 384-well plates at a volume of 40 µL per well, then incubated overnight at 37°C with 5% CO2. Compounds (40 nL) were added to each well to achieve final concentrations ranging from 0 to 10,000 nM (starting concentration 10,000 nM, 2.5-fold serial dilutions, 10 dose points), with a final DMSO concentration of 0.2%. The cell plates were incubated at 37°C with 5% CO2 for 6 days. Subsequently, 40 µL of CellTiter-Glo reagent was added to measure cell viability.

Setting [4] is: Homo sapiens, LN-18, MTAP (-/-).
Setting [5] is: read-out: median IC50, 15 MTAP(-/-) cell lines.
Where [6] appears, read: Homo sapiens, ASPC1, MTAP Wild type.
Where [7] appears, read: read-out: median IC50, MTAP wild-type cells.
The mark [8] stands for this setting: span over the cell lines, read-out: IC50 values (range) against MTAP wild-type cells.
The mark [9] stands for this setting: Homo sapiens, BXPC-3, MTAP (-/-).
The mark [10] stands for this setting: Homo sapiens, Calu-1, MTAP Wild type.
The mark [11] stands for this setting: Homo sapiens, Lu-99, MTAP (-/-).

Read-outs that look alike come from different tables or passages of the source. Where only a bound is given, the exact number is not on record here.

`CN(C(=O)c1cc2c(cn1)nc(N)c1cncn12)[C@@H]1COc2cc(C(F)(F)F)ccc21` [Example 4, (S)-4-amino-N-methy 1-N-(6-(trifluoromethy 1)-2,3-dihydrobenzofuran-3-yl)imidazo[1,5-a]pyrido[3,4-e]pyrazine-8-carboxamide]: the IC50 is 148 nM in the assay with U87MG (Homo sapiens, U-87 MG); 7.85 nM in the assay with LN18 MTAP(-/-) cells (Homo sapiens, LN-18, 168 h); 7.8 nM in the assay with LN-18 (setting [4]); 38.8 nM in the assay with 15 MTAP(-/-) cell lines (setting [5]); no less than 2.4 nM in the assay on 15 MTAP(-/-) cell lines (span over the cell lines, read-out: IC50 values (range) against the 15 MTAP(-/-) cell lines); 9.9 nM in assay [1] (Homo sapiens, HCT-116, 192 h). Also, the IC50 in the assay on Aspc-1 (setting [6]) is 6600 nM; in [2] (setting [7]), 1710 nM; in [2] (setting [8]), 407 to 6600 nM; with BxPc-3 (setting [9]), 15.2 nM; in the assay on Calu-1 (setting [10]) it was 3370 nM; in the assay on LU99 (setting [11]), 21.8 nM. Further, the “selectivity, calculated based on the median values” (shortened to “selectivity, calculated based”) with 15 MTAP(-/-) cell lines is listed as 44.2 fold.

Take `[2H]C([2H])([2H])N(C(=O)c1ccc2nc(N)c3cncn3c2c1)[C@@H]1COc2cc(C(F)(F)F)ccc21` [Example 16, (S)-4-amino-N-(methyl-d3)-N-(6-(trifluoromethyl)-2,3-dihydrobenzofuran-3-yl)imidaz o[1,5-a]quinoxaline-8-carboxamide]: the IC50 in the assay with LN18 MTAP(-/-) cells (Homo sapiens, LN-18, 168 h) amounted to 6.57 nM; in [1] (Homo sapiens, HCT-116, 192 h) it was 5.6 nM; in the assay on NCI-H838 MTAP(-/-) cells (Homo sapiens, NCI-H838, 144 h), 66.8 nM; in [3] (Homo sapiens, Lu-99, 144 h) it was 2480 nM.

Regarding `[2H]C([2H])([2H])N(C(=O)c1cc2c(cc1F)nc(N)c1cncn12)[C@@H]1COc2cc(C(F)(F)F)ccc21` [Example 41, (S)-4-amino-7-fluoro-N-(methyl-d3)-N-(6-(trifluoromethyl)-2,3-di hydrobenzofuran-3-yl)imidazo[1,5-a]quinox aline-8-carboxamide], the IC50 with LN18 MTAP(-/-) cells (Homo sapiens, LN-18, 168 h) was found to be 14.5 nM; in assay [1] (Homo sapiens, HCT-116, 192 h), 11 nM; in the assay on NCI-H838 MTAP(-/-) cells (Homo sapiens, NCI-H838, 144 h), 57.6 nM; in assay [3] (Homo sapiens, Lu-99, 144 h), 1640 nM.

`CN(C(=O)c1ccc2nc(N)c3cncn3c2c1)[C@@H]1COc2cc(C(F)(F)F)ccc21` [Example 107, (S)-4-amino-N-methy 1-N-(6-(trifluoromethy 1)-2,3-dihydrobenzofuran-3-yl)imidazo[1,5-a]quinoxaline-8-carboxamide]: the IC50 in the assay with U87MG (Homo sapiens, U-87 MG) was 327 nM; in the assay on LN18 MTAP(-/-) cells (Homo sapiens, LN-18, 168 h), 11.1 nM; with LN-18 (setting [4]), 9.4 nM; in the assay with 15 MTAP(-/-) cell lines (setting [5]), 56.6 nM; in assay [1] (Homo sapiens, HCT-116, 192 h), 7.4 nM; in the assay on Aspc-1 (setting [6]), greater than 10000 nM. Moreover, the IC50 in assay [2] (setting [7]) is 3330 nM; in assay [2] (setting [8]), no less than 781 nM; in the assay with NCI-H838 MTAP(-/-) cells (Homo sapiens, NCI-H838, 144 h), 67.8 nM; with BxPc-3 (setting [9]) it was 32.7 nM; in assay [3] (Homo sapiens, Lu-99, 144 h), 2360 nM; in the assay with Calu-1 (setting [10]) it was greater than 10000 nM. For the same compound, the IC50 with LU99 (setting [11]) turned out to be 39.6 nM. In the assay on 15 MTAP(-/-) cell lines, the “selectivity, calculated based” value was 58.8 fold.

In the case of “(S)-4-amino-7-fluoro-N-methyl-N-(6-(triflu oromethyl)-2,3-dihydr obenzofuran-3-yl)imi dazo[1,5-a]quinoxalin e-8-carboxamide [Example 29]”, the IC50 in the assay on U87MG was 1040 nM; with LN18 MTAP(-/-) cells it was 5.42 nM; with LN-18 (MTAP (-/-)), 5.4 nM; in the assay on 15 MTAP(-/-) cell lines (setting [5]) it was 42.4 nM; in assay [1] it was 7.1 nM; with Aspc-1 (MTAP Wild type) it was greater than 10000 nM. The IC50 in [2] (setting [7]) was found to be 3300 nM; in the assay with NCI-H838 MTAP(-/-) cells (cell proliferation, 6 days, CellTiter-Glo), 76.8 nM; in the assay on BxPc-3 (MTAP (-/-)) it was 57.2 nM; in [3] it was 1490 nM; in the assay on Calu-1 (MTAP Wild type), 2300 nM; in the assay on LU99 (MTAP (-/-)) it was 37.4 nM. The “selectivity, calculated based” value with 15 MTAP(-/-) cell lines is 77.7 fold.
